Our source for the viability, T/C and IC50 values is PubChem BioAssay AID1918942 (Molecular Pharmacology Branch, DTP, NCI, 2023).

The subject of this test is 743489-274-T-PDC complex spheroid viability. In words: Anticancer human tumor 743489-274-T-PDC patient-derived renal cell carcinoma cell line growth inhibition. To be noted: for viability, T/C: stronger effect = lower value; for IC50: curve of compound. The text has this: Multicellular complex tumor spheroid response to LSD1 Inhibitor Iadademstat in combination with a variety of drugs and investigational agents in selected tumor cell lines
The current study was undertaken to assess response to LSD1 inhibitors in combination with standard-of-care drugs and investigational agents in solid tumor complex spheroid models as well as in the K-562 leukemia. Complex spheroids include a stromal component modeled by human endothelial cells (HUVEC) and fibroblasts modeled by human mesenchymal stem cells (MSCs). The concentration ranges selected for each drug and investigational agent were based upon clinically achievable concentrations if the clinical Cmax of the agent was known.
Compounds. The drugs and investigational agents used in this study are listed on Table 1. All of the agents used, including staurosporine (NSC755774) and gemcitabine (NSC613327), were obtained from the Developmental Therapeutics Program, NCI. FDA-approved anticancer drugs are available from the NCI at http://dtp.nci.nih.gov/branches/dscb/oncology_drugset_explanation.html. Drugs and investigational agents were >95% pure by proton nuclear magnetic resonance (NMR) and liquid chromatography/mass spectrometry (LC/MS). Stock solutions were prepared at 400x in DMSO, stored at -70 degrees C, and diluted in fresh medium prior to their use. The final concentration of DMSO in cell culture wells never exceeded 0.25% (v/v). The FDA-approved anticancer drug set is available from the Developmental Therapeutics Program at https://dtp.cancer.gov/organization/dscb/obtaining/available_plates.htm. All drugs and investigational agents were tested over a range starting from a high concentration at or near the clinical Cmax and decreasing in half-log increments. If the clinical Cmax for an agent had not been determined, the highest concentration tested was 10 microM.
Cell Lines. The patient-derived cancer cell (PDC) lines: 292921-168-R-J2-PDC, K24384-001-R-PDC, and 521955-158-R2-J5-PDC pancreatic carcinomas, 556581-035-R-J1 ovarian carcinoma, 324938-238-R-J1-PDC, 855422-203-R-J1-PDC and 883617-216-R-J1-PDC urothelial bladder carcinomas, 743489-274-T-PDC renal cell carcinoma, 138582-R-J1 Merkel cell tumor, K60290-347-R-J1 and K57222-313-R-J1-PDC glioblastomas, 653999-131-R-J2-PDC, LG0703-F948-PDC, and 349418-098-R-PDC non-small cell lung carcinomas, 885512-296-R-J2-PDC, 171881-019-R-J1-PDC breast carcinomas and 186277-243-T-J2-PDC and 233499-124-R-J2-PDC colon carcinomas were obtained from the NCI Patient-Derived Models Repository (PDMR, https://pdmr.cancer.gov). The established cell lines NCI/ADR-RES (RRID:CVCL_14520 and OVCAR-5 (RRID:CVCL_1628) ovarian carcinomas, 786-O (RRID:CVCL_1051) and A498 (RRID:CVCL_A498) renal cell carcinoma, NCI-H211 (ATCC, cat. CRL-5824; RRID:CVCL_1529), NCI-H196 (ATCC, cat. CRL-5823, RRID:CVCL_1509), SW 1271 (ATCC, cat. CRL-2177, RRID:CVCL_1716) and NCI-H1876 (ATCC, cat. CRL-5902, RRID:CVCL_1503) small cell lung carcinomas, MDA-MB-231 (RRID:CVCL_0062) and MDA-MB-468 (RRID:CVCL_0419)breast carcinomas (10-12). Pooled donor human umbilical vein endothelial cells (HUVEC, Lonza, cat. CC-2519) and human mesenchymal stem cells (hMSC, Lonza, cat. PT-2501) were purchased from Lonza (Walkersville, MD).
Cell Culture. All cells were maintained in an incubator at 37 degrees C and 5% CO2 with 95% humidity. The PDC lines were cultured according to standard operating procedures established by the NCI PDMR (https://pdmr.cancer.gov). Briefly all PDCs were thawed and cultured in Matrigel-coated flasks prepared with a working solution of 1X Ham's F-12 nutrient mix, without supplementation (Invitrogen, Waltham, MA, cat. 11765054), 100 U/mL penicillin-streptomycin (Invitrogen, cat. 15140122), and 2.5% Matrigel (Corning Inc., Corning, NY, cat. 354248) for the first three passages. […]

The term viability, T/C denotes the result in the treated group divided by that in the control group, in per cent. What is called IC50 is the concentration needed to halve the response being measured.

Where “and” joins values, the source holds several entries; their conditions need not be identical. Equal entries are not always repeated.
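Further: spheroids exposed to compounds for 7 days before readout.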

Turning to `Cn1ncnc1C1c2n[nH]c(=O)c3cc(F)cc(c23)NC1c1ccc(F)cc1` (stereo not drawn), the IC50 is more than 100 nM. In addition, for the setting “compound 0.000316 µM”, the viability, T/C is 88.5% and 99.7%. Besides, for the setting “compound 0.001 µM”, the viability, T/C was 100% and 110%. Moreover, under “compound 0.00316 µM”, the viability, T/C was 90.2% and 98.6%. In addition, the viability, T/C (compound 0.01 µM) was 95.9% and 90.8%. Further, the viability, T/C (compound 0.0316 µM) is 93.7% and 92.8%. Further, the viability, T/C (compound 0.1 µM) was 91.4% and 84.3%.
For `NS(=O)(=O)OCC1CC(n2ccc3c(NC4CCc5ccccc54)ncnc32)CC1O` (stereo not drawn), the concentration for half-maximal inhibition (IC50) was more than 3000 nM. Besides, the viability, T/C (compound 0.00949 µM) is 90.9% and 95.7%. Further, where the note is “compound 0.03 µM”, the viability, T/C is 95.9% and 111%. Also, the viability, T/C (compound 0.0949 µM) is 111% and 103%. The viability, T/C (compound 0.3 µM) was 118% and 135%. Moreover, the viability, T/C (compound 0.949 µM) was 116% and 125%. Further, where the note is “compound 3 µM”, the viability, T/C was 121% and 101%.
For `Nc1ccccc1NC(=O)c1ccc(CNC(=O)OCc2cccnc2)cc1`, the IC50 was 1160 nM and 758 nM. Further, the viability, T/C (compound 0.00949 µM) was 85.4% and 102%. Further, the viability, T/C (compound 0.03 µM) was 89.2% and 78%. In addition, the viability, T/C (compound 0.0949 µM) was 95.2% and 79.4%. In addition, the viability, T/C (compound 0.3 µM) was 78.8% and 67.1%. For the same compound, where the note is “compound 0.949 µM”, the viability, T/C is 54.2% and 47.6%. For the same compound, the viability, T/C (compound 3 µM) was 32.6% and 26.4%.
Turning to `Nc1ccn(C2OC(CO)C(O)C2(F)F)c(=O)n1` (stereo not drawn), the 50% inhibitory concentration (IC50) was more than 300 nM. The viability, T/C (compound 0.000949 µM) is 82.7% and 61.8%. Besides, the viability, T/C (compound 0.003 µM) was 85.6% and 60.9%. Also, under “compound 0.00949 µM”, the viability, T/C was 73% and 96.8%. Further, the viability, T/C (compound 0.03 µM) is 73.7% and 58%. Under “compound 0.0949 µM”, the viability, T/C is 71.6% and 64.1%. Further, the viability, T/C (compound 0.3 µM) was 65.2% and 63.2%.
With `Nc1ncn(C2CC(O)C(CO)O2)c(=O)n1` (stereo not drawn), the IC50 is more than 1000 nM. The viability, T/C (compound 0.00316 µM) was 105% and 90.1%. Moreover, where the note is “compound 0.01 µM”, the viability, T/C was 98% and 100%. Moreover, where the note is “compound 0.0316 µM”, the viability, T/C is 81% and 101%. For the same compound, where the note is “compound 0.1 µM”, the viability, T/C is 96.1% and 84.5%. The viability, T/C (compound 0.316 µM) was 96% and 94.3%. The viability, T/C (compound 1 µM) is 84.3% and 97.7%.
`Nc1ncn(C2CC(O)C(CO)S2)c(=O)n1` (stereo not drawn): the IC50 was more than 300 nM. In addition, the viability, T/C (compound 0.000949 µM) was 106% and 96.8%. Under “compound 0.003 µM”, the viability, T/C is 108% and 96.2%. Besides, the viability, T/C (compound 0.00949 µM) is 90.8% and 92%. In addition, the viability, T/C (compound 0.03 µM) was 80.2% and 82.5%. In addition, under “compound 0.0949 µM”, the viability, T/C was 89.9% and 81.5%. The viability, T/C (compound 0.3 µM) is 88.7% and 75.2%.
As to `O=C(C=Cc1cccc(S(=O)(=O)Nc2ccccc2)c1)NO`, the IC50 is 1610 nM and 1010 nM. For the same compound, the viability, T/C (compound 0.00949 µM) was 89.9% and 92.2%. Under “compound 0.03 µM”, the viability, T/C is 83.1% and 89.3%. Under “compound 0.0949 µM”, the viability, T/C is 76.4% and 75%. For the same compound, the viability, T/C (compound 0.3 µM) was 66.4% and 65%. Besides, the viability, T/C (compound 0.949 µM) was 55.4% and 51.6%. In addition, the viability, T/C (compound 3 µM) is 43.6% and 35.7%.
As for `O=C(C=Cn1cnc(-c2cc(C(F)(F)F)cc(C(F)(F)F)c2)n1)NNc1cnccn1`, the IC50 was more than 1000 nM. For the same compound, the viability, T/C (compound 0.00316 µM) was 106% and 109%. Also, the viability, T/C (compound 0.01 µM) was 108% and 91%. The viability, T/C (compound 0.0316 µM) was 121% and 117%. Further, the viability, T/C (compound 0.1 µM) is 115% and 97.5%. Also, for the setting “compound 0.316 µM”, the viability, T/C is 94.2% and 86.3%. The viability, T/C (compound 1 µM) is 81.2% and 73.2%.
As to `O=C(c1cc(Cc2n[nH]c(=O)c3ccccc23)ccc1F)N1CCN(C(=O)C2CC2)CC1`, the IC50 is more than 10000 nM. The viability, T/C (compound 0.0316 µM) was 95.3% and 101%. Moreover, the viability, T/C (compound 0.1 µM) is 88.2% and 113%. Also, the viability, T/C (compound 0.316 µM) is 102% and 108%. The viability, T/C (compound 1 µM) is 108%. The viability, T/C (compound 3.16 µM) is 94.5% and 93.2%. Besides, the viability, T/C (compound 10 µM) was 83% and 82.5%.
